Source: ChEMBL document CHEMBL3785042, “Discovery of MK-8831, A Novel Spiro-Proline Macrocycle as a Pan-Genotypic HCV-NS3/4a Protease Inhibitor” (ACS Med Chem Lett, 2016)
Each block holds one molecule with its values, some of them ahead of it.

What was measured:
[1] = Inhibition of HCV genotype 3a full length NS3/4A protease using Ac-C(Eu)DDMEEAbu[COO]ASK(QSY7)-amide as substrate preincubated for 30 mins followed by substrate addition measured after 2.5 hrs by TRF assay; set-up: species or system Hepatitis C virus subtype 3a
[2] = AUC (0 to 24 hrs) in rat at 5 mg/kg, po; assay type: ADME, organism-based; set-up: dose 5 mg/kg, time < 24 hr, route oral; conditions: in vivo
[3] = test system: Canis familiaris; assay: Toxicity in telemetered dog up to 40 mg/kg; assay type: organism-based, Canis lupus familiaris; conditions: in vivo
[4] = target: Cytochrome P450 2C9 (Homo sapiens, UniProt P11712); assay: Inhibition of CYP2C9 (unknown origin) up to 50 uM; assay type: ADME
[5] = organism: Canis familiaris; assay: Protein binding in dog; assay type: ADME, organism-based, Canis lupus familiaris; conditions: in vivo
[6] = test system: Canis familiaris; assay: Toxicity in conscious telemetered dog assessed as effect on blood pressure; assay type: organism-based, Canis lupus familiaris; conditions: in vivo
[7] = Inhibition of HCV genotype 1b NS3/4A protease D168Y mutant using Ac-C(Eu)DDMEEAbu[COO]ASK(QSY7)-amide as substrate preincubated for 30 mins followed by substrate addition measured after 2.5 hrs by TRF assay; set-up: species or system Hepatitis C virus subtype 1b
[8] = test system: Canis familiaris; assay: Toxicity in conscious telemetered dog assessed as effect on heart rate; assay type: organism-based, Canis lupus familiaris; conditions: in vivo
[9] = test system: Hepatitis C virus; assay: Antiviral activity against HCV genotype 2a infected in human HuH7 cells assessed as inhibition of viral replication after 72 hrs by RT-PCR method in presence of 100% normal human serum; assay type: functional, Hepacivirus hominis; conditions: Huh-7, 72 h
[10] = test system: Hepatitis C virus; assay: Antiviral activity against HCV genotype 1b infected in human HuH7 cells assessed as inhibition of viral replication after 72 hrs by RT-PCR method; assay type: functional, organism-based, Hepacivirus hominis; conditions: Huh-7, 72 h
[11] = test system: Hepatitis C virus; assay: Antiviral activity against HCV genotype 3a infected in human HuH7 cells assessed as inhibition of viral replication after 72 hrs by RT-PCR method in presence of 100% normal human serum; assay type: functional, Hepacivirus hominis; conditions: Huh-7, 72 h
[12] = test system: Rattus norvegicus; assay: Toxicity in telemetered rat up to 40 mg/kg; assay type: organism-based; conditions: in vivo
[13] = test system: Liver; assay: Drug uptake in rat liver at 40 mg/kg/day; assay type: ADME, organism-based; conditions: in vivo, read-out: Drug uptake
[14] = test system: Hepatitis C virus; assay: Antiviral activity against HCV genotype 1a infected in human HuH7 cells assessed as inhibition of viral replication after 72 hrs by RT-PCR method in presence of 100% normal human serum; assay type: functional, Hepacivirus hominis; conditions: subtype 1a, Huh-7, 72 h
[15] = test system: Rattus norvegicus; assay: Toxicity in rat at 40 mg/kg/day measured for 3 days of dosing; assay type: organism-based; conditions: in vivo, 72 h
[16] = test system: Hepatitis C virus; assay: Antiviral activity against HCV genotype 1a infected in human HuH7 cells assessed as inhibition of viral replication after 72 hrs by RT-PCR method; assay type: functional, organism-based, Hepacivirus hominis; conditions: subtype 1a, Huh-7, 72 h
[17] = test system: Hepatitis C virus; assay: Antiviral activity against HCV genotype 1b infected in human HuH7 cells assessed as inhibition of viral replication after 72 hrs by RT-PCR method in presence of 100% normal human serum; assay type: functional, Hepacivirus hominis; conditions: Huh-7, 72 h
[18] = target: Hepatitis C virus serine protease, NS3/NS4A (Hepatitis C virus, UniProt A3EZI9+D2K2A8, R155K); assay: Inhibition of HCV genotype 1b NS3/4A protease R155K mutant using Ac-C(Eu)DDMEEAbu[COO]ASK(QSY7)-amide as substrate preincubated for 30 mins followed by substrate addition measured after 2.5 hrs by TRF assay; set-up: species or system Hepatitis C virus subtype 1b
[19] = test system: Hepatitis C virus; assay: Antiviral activity against HCV genotype 2b infected in human HuH7 cells assessed as inhibition of viral replication after 72 hrs by RT-PCR method; assay type: functional, organism-based, Hepacivirus hominis; conditions: Huh-7, 72 h
[20] = organism: Rattus norvegicus; assay: Protein binding in rat; assay type: ADME, organism-based; conditions: in vivo
[21] = Oral bioavailability in rat at 5 mg/kg; assay type: ADME, organism-based; conditions: in vivo
[22] = test system: Canis familiaris; assay: Toxicity in conscious telemetered dog assessed as effect on body temperature; assay type: organism-based, Canis lupus familiaris; conditions: in vivo
[23] = Inhibition of HCV genotype 1a NS3/4A protease using Ac-C(Eu)DDMEEAbu[COO]ASK(QSY7)-amide as substrate preincubated for 30 mins followed by substrate addition measured after 2.5 hrs by TRF assay; set-up: species or system Hepatitis C virus subtype 1a
[24] = Inhibition of HCV genotype 1b NS3/4A protease A156V mutant using Ac-C(Eu)DDMEEAbu[COO]ASK(QSY7)-amide as substrate preincubated for 30 mins followed by substrate addition measured after 2.5 hrs by TRF assay; set-up: species or system Hepatitis C virus subtype 1b
[25] = test system: Rattus norvegicus; assay: Hepatotoxicity in rat at 134 uM measured for 3 days of dosing; assay type: toxicity, organism-based; conditions: in vivo, 72 h
[26] = test system: Hepatitis C virus; assay: Antiviral activity against HCV genotype 3a infected in human HuH7 cells assessed as inhibition of viral replication after 72 hrs by RT-PCR method; assay type: functional, organism-based, Hepacivirus hominis; conditions: Huh-7, 72 h
[27] = target: Cytochrome P450 2D6 (Homo sapiens, UniProt P10635); assay: Inhibition of CYP2D6 (unknown origin) up to 50 uM; assay type: ADME
[28] = target: T1, Cytochrome P450 2C8 (Homo sapiens, UniProt P10632); assay: Inhibition of CYP2C8 (unknown origin) up to 20 uM; assay type: ADME
T1 sequence (P10632 whole entry): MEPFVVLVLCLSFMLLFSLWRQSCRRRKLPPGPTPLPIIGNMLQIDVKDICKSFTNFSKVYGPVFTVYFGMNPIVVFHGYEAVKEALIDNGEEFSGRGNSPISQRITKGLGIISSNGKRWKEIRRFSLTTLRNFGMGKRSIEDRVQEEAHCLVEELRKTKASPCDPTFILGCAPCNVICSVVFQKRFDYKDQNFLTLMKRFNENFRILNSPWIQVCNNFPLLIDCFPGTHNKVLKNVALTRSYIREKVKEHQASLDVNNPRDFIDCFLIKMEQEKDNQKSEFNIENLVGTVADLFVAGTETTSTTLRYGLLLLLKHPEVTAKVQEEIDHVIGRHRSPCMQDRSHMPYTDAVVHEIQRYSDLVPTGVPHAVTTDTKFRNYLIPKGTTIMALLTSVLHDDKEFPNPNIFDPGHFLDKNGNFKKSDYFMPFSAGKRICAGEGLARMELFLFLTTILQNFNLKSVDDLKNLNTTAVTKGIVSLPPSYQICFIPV

[29] = test system: Canis familiaris; assay: Toxicity in conscious telemetered dog assessed as effect on ECG parameters; assay type: organism-based, Canis lupus familiaris; conditions: in vivo
[30] = test system: Hepatitis C virus; assay: Antiviral activity against HCV genotype 2a infected in human HuH7 cells assessed as inhibition of viral replication after 72 hrs by RT-PCR method; assay type: functional, organism-based, Hepacivirus hominis; conditions: Huh-7, 72 h
[31] = Inhibition of HCV genotype 1b NS3/4A protease A156T mutant using Ac-C(Eu)DDMEEAbu[COO]ASK(QSY7)-amide as substrate preincubated for 30 mins followed by substrate addition measured after 2.5 hrs by TRF assay; set-up: species or system Hepatitis C virus subtype 1b
[32] = Oral bioavailability in dog at 1 mg/kg; assay type: ADME, organism-based, Canis lupus familiaris; conditions: in vivo
[33] = test system: Canis familiaris; assay: Toxicity in conscious telemetered dog assessed as effect on respiratory function; assay type: organism-based, Canis lupus familiaris; conditions: in vivo
[34] = test system: Salmonella typhimurium; assay: Mutagenicity in Salmonella typhimurium by Ames test; assay type: toxicity, organism-based; conditions: salmonella enterica subsp. enterica serovar typhimurium
[35] = Inhibition of HCV genotype 1b full length NS3/4A protease using Ac-C(Eu)DDMEEAbu[COO]ASK(QSY7)-amide as substrate preincubated for 30 mins followed by substrate addition measured after 2.5 hrs by TRF assay; set-up: species or system Hepatitis C virus subtype 1b
[36] = target: Cytochrome P450 3A4 (Homo sapiens, UniProt P08684); assay: Inhibition of CYP3A4 (unknown origin) up to 50 uM; assay type: ADME

- IC50 [1]: 1.33 nM
- AUC(0-t) at 24 h [2]: 2.3 µM·h
SMILES: COc1ccc2nc(C3CC3)c3c(c2c1)CC[C@]1(C[C@H]2C(=O)N[C@]4(C(=O)NS(=O)(=O)C5(C)CC5)C[C@H]4/C=C\CCCCC[C@H](NC(=O)OCC(C)C)C(=O)N2C1)O3

SMILES: COc1ccc2nc(C(F)(F)F)c3c(c2c1)CC[C@]1(C[C@H]2C(=O)N[C@]4(C(=O)NS(=O)(=O)C5(C)CC5)C[C@H]4/C=C\CCCCC[C@H](NC(=O)OCC(C)C)C(=O)N2C1)O3
- Activity [3]: Non-toxic
- inhibition (INH) [4]: Not Active
- PB [5]: Active
- Activity [6]: Non-toxic
- IC50 [7]: 0.023 nM
- Activity [8]: Non-toxic
- EC90 [9]: 60 nM
- EC50 [10]: 0.8 nM
- EC90 [11]: 90 nM
- Activity [12]: Non-toxic
- concentration [13]: 134 µM
- EC90 [14]: 68 nM
- Activity [15]: Non-toxic
- IC50 [1]: 0.41 nM
- EC50 [16]: 0.7 nM
- EC90 [17]: 20 nM
- IC50 [18]: 0.01 nM
- EC50 [19]: 3.4 nM
- PB [20]: Active
- bioavailability [21]: 31%
- Activity [22]: Non-toxic
- IC50 [23]: 0.009 nM
- IC50 [24]: 2.76 nM
- Activity [25]: Non-toxic
- EC50 [26]: 1.7 nM
- inhibition (INH) [27]: Not Active
- inhibition (INH) [28]: Not Active
- Activity [29]: Non-toxic
- EC50 [30]: 0.9 nM
- IC50 [31]: 0.483 nM
- bioavailability [32]: 17%
- Activity [33]: Non-toxic
- AUC(0-t) at 24 h [2]: 9 µM·h
- Activity [34]: Non-toxic
- IC50 [35]: 0.004 nM
- inhibition (INH) [36]: Not Active

- IC50 [1]: 13 nM
- AUC(0-t) at 24 h [2]: 2 µM·h
SMILES: CC(C)(C)OC(=O)N[C@H]1CCCCC/C=C\[C@@H]2C[C@@]2(C(=O)NS(=O)(=O)C2(C)CC2)NC(=O)[C@@H]2C[C@]3(CCc4c(c(C5CC5)nc5ccccc45)O3)CN2C1=O

- IC50 [1]: 0.18 nM
- AUC(0-t) at 24 h [2]: 0.13 µM·h
SMILES: COc1ccc2nc(C)c3c(c2c1)CC[C@]1(C[C@H]2C(=O)N[C@]4(C(=O)NS(=O)(=O)C5(C)CC5)C[C@H]4/C=C\CCCCC[C@H](NC(=O)OCC(C)C)C(=O)N2C1)O3

- IC50 [1]: 0.27 nM
- AUC(0-t) at 24 h [2]: 2 µM·h
SMILES: COc1ccc2nc(C(F)(F)F)c3c(c2c1)CC[C@]1(C[C@H]2C(=O)N[C@]4(C(=O)NS(=O)(=O)C5(C)CC5)C[C@H]4/C=C\CCCCC[C@H](NC(=O)OC(C)(C)C)C(=O)N2C1)O3
